# Experimental data reported in patent US7812165B2, “6-substituted pyridoindolone derivatives, production and therapeutic use thereof” (sanofi-aventis, priority 2004, dated 2010).
compound,measurement,value
"CCON=Cc1ccc2[nH]c3c(cc(-c4ccc(OC)cc4OC)c(=O)n3C)c2c1 [Compound 7, 3-(2,4-Dimethoxyphenyl)-1-methyl-2-oxo-2,9-dihydro-1H-pyrido[2,3-b]indole-6-carbaldehyde O-ethyloxime]",melting point,295 °C
